Consider three compounds from paper PMC11557573, “Aspergillus flavipes L-methionine γ-lyase-β-cyclodextrin conjugates with improved stability, catalytic efficiency and anticancer activity” (Scientific Reports, 2024).

The test system of the assay is T1, A. flavipes L-methionine γ-lyase (MGL), free MGL.
T1 construct: native intracellular enzyme purified from A. flavipes mycelium (acetone, Sephadex G100, DEAE-Sepharose); 48 kDa subunit; PLP enzyme; free (not cyclodextrin-conjugated)
Briefly: released thiol/ammonia assay (DTNB), Lineweaver-Burk. As to conditions: free enzyme; standard assay Tris-HCl pH 7.8, 10 μM PLP, 37 °C. Format: biochemical, Aspergillus flavipes. The text has this: released thiol/ammonia assay (DTNB), Lineweaver-Burk on A. flavipes L-methionine γ-lyase (MGL), free MGL
`NC(CCS)C(=O)O` (racemic) [DL-homocysteine]: the Michaelis constant (Km) is 12.2 mM.

`N[C@@H](CS)C(=O)O` [L-cysteine]: the Km stood at 9.5 mM.

As to `CSCC[C@H](N)C(=O)O` [L-methionine], the Km stood at 7.2 mM.

In general, Km refers to the concentration of substrate that gives half-maximal velocity.
